Assay results from patent US7598244B2, “[1,2,4]triazolo[1,5,a]pyrimidin-2-ylurea derivative and use thereof” (Nippon Kayaku Kabushiki Kaisha, priority 2003, dated 2009).

The compounds below were run on MHC class I molecules of T1 cells (human lymphoma cell line 174×CEM.) (assay: Effect on expression of MHC class I from T1 cells (flow cytometry, MFI)). Settings: 3 days culture.
Format: cell-based
Experimental: Effect on Expression of MHC Class I from T1 Cells (Human Lymphoma Cell Line 174×CEM.)
Using a 96-well flat bottom microplate, T1 cells (5.7×10^3 cells/200 μl/well) were cultured in an RPMI 1640 medium (Iwaki Glass) containing 10% fetal bovine serum (hereinafter abbreviated as FBS; Iruvine Scientific) in an incubator containing 5% carbon dioxide at 37° C. for 3 days, in the presence of a test compound having each concentration obtained by dilution at a common ratio route of 10 from 400 μM. After completion of the culture, the cells were stained with fluoroisothiocyanate-labeled mouse anti-human MHC class I monoclonal antibody (an antibody produced from the cell line W6/32 (ATCC No. CRL 1991)). The mean fluorescence intensity of the stained cells (hereinafter referred to as MFI) was measured using flow cytometry FACScan (BD). The obtained value was defined as an expression level of MHC class I molecules. A test compound concentration necessary for suppressing 20% of the expression level of MHC class I molecules (EC20 value) was calculated using the following formula (1).
[formula] • Eexp: MFI of cultured cells containing test compound after being stained with antibody • Cexp: MFI of cultured cells containing no test compounds after being stained with antibody

In order of falling “EC20 (concentration necessary for suppressing 20% of the expression level of MHC class I molecules)” value:
1. COc1cccc(-c2ccnc3nc(NC(=O)NCc4ccccc4)nn23)c1 [Example 019]  1.1 µM
2. COc1ccc(-c2ccnc3nc(NC(=O)N[C@H](C(=O)NCCN4CCOCC4)C(C)C)nn23)cc1 [Example 079]  0.97 µM
3. CC(NC(=O)Nc1nc2nccc(-c3cccs3)n2n1)c1ccc2c(c1)OCO2 (stereo not shown) [Example 295]  0.79 µM
4. COc1cccc([C@H](C)NC(=O)Nc2nc3nccc(-c4cc(OC)c(OC)c(OC)c4)n3n2)c1 [Example 308]  0.76 µM
5. COc1ccc(-c2ccnc3nc(NC(=O)N[C@@H](C)C(C)=O)nn23)cc1 [Example 220]  0.72 µM
6. COC(=O)C1CCCC(NC(=O)Nc2nc3nccc(-c4ccc(OC)cc4)n3n2)C1 (stereo not shown) [Example 168]  0.67 µM
7. COc1ccc(-c2ccnc3nc(NC(=O)NC(C)CCC(=O)N4CCOCC4)nn23)cc1 (stereo not shown) [Example 273]  0.6 µM
8. CC(C)NC(=O)Nc1nc2nccc(-c3cccc(OCCN4CCOCC4)c3)n2n1 [Example 189]  0.59 µM
9. COc1ccc(-c2ccnc3nc(NC(=O)NC(C)CC(C)C)nn23)cc1 (racemic) [Example 235]  0.59 µM
10. COc1ccc(-c2ccnc3nc(NC(=O)N[C@H](C(=O)NCCc4ccncc4)C(C)C)nn23)cc1 [Example 116]  0.57 µM
11. C[C@H](NC(=O)Nc1nc2nccc(-c3cccc(O)c3)n2n1)c1cccc(O)c1 [Example 267]  0.55 µM
12. O=C(NCc1ccccc1)Nc1nc2nccc(-c3cccc(O)c3)n2n1 [Example 025]  0.5 µM
13. CNC(=O)Nc1nc2nccc(-c3cccs3)n2n1 [Example 013]  0.48 µM
14. CC(C)NC(=O)Nc1nc2nccc(-c3cccc(O)c3)n2n1 [Example 084]  0.42 µM
15. CC(C)NC(=O)Nc1nc2nccc(-c3cccc(OCCCc4ccccc4)c3)n2n1 [Example 194]  0.42 µM
16. COc1ccc(-c2ccnc3nc(NC(=O)NCCc4ccccn4)nn23)cc1 [Example 065]  0.35 µM
17. COC(=O)[C@H](C)NC(=O)[C@H](C)NC(=O)Nc1nc2nccc(-c3ccc(OC)cc3)n2n1 [Example 122]  0.34 µM
18. COCC/C=C/[C@H](C)NC(=O)Nc1nc2nccc(-c3cccs3)n2n1 [Example 290]  0.34 µM
19. CNC(=O)C1CCCC(NC(=O)Nc2nc3nccc(-c4ccc(OC)cc4)n3n2)C1 (stereo not shown) [Example 174]  0.33 µM
20. COc1ccc(-c2ccnc3nc(NC(=O)N[C@@H](C)C(=O)NC4CCCCC4)nn23)cc1 [Example 120]  0.25 µM
21. COC[C@H](C)NC(=O)Nc1nc2nccc(-c3ccc(OC)cc3)n2n1 [Example 237]  0.25 µM
22. CC(C)COc1cccc(-c2ccnc3nc(NC(=O)NC(C)C)nn23)c1 [Example 172]  0.24 µM
23. COc1ccc(-c2ccnc3nc(NC(=O)NC(C)c4cccc(OCC(C)C)c4)nn23)cc1 (racemic) [Example 230]  0.22 µM
24. COc1ccc(-c2ccnc3nc(NC(=O)N[C@@H](C)C(=O)NCc4ccccn4)nn23)cc1 [Example 124]  0.21 µM
25. COc1ccc(-c2ccnc3nc(NC(=O)N[C@@H](C)C(=O)NCc4ccccc4)nn23)cc1 [Example 119]  0.21 µM
26. COCOc1cccc(-c2ccnc3nc(NC(=O)N[C@@H](C)c4cccc(OC)c4)nn23)c1 [Example 212]  0.18 µM
27. CC(COCC1CCOCC1)NC(=O)Nc1nc2nccc(-c3cccs3)n2n1 (stereo not shown) [Example 331]  0.15 µM
28. O=C(Nc1nc2nccc(-c3ccc(O)c(O)c3)n2n1)NC1CCCCC1 [Example 068]  0.14 µM
29. COCC/C=C/[C@H](C)NC(=O)Nc1nc2nccc(-c3ccc(OC)cc3)n2n1 [Example 289]  0.11 µM
30. COCCOCCOCCOc1cccc(-c2ccnc3nc(NC(=O)N[C@@H](C)c4cccc(OC)c4)nn23)c1 [Example 239]  0.11 µM
31. COc1ccc(-c2ccnc3nc(NC(=O)NCCC(=O)OC(C)(C)C)nn23)cc1 [Example 109]  0.11 µM
32. CC(C)CCC[C@H](C)NC(=O)Nc1nc2nccc(-c3cccc(OCc4cccnc4)c3)n2n1 [Example 261]  0.08 µM
33. COc1cc(C(C)NC(=O)Nc2nc3nccc(-c4cccs4)n3n2)cc(OC)c1OC (stereo not shown) [Example 294]  0.07 µM
34. COc1cccc([C@H](C)NC(=O)Nc2nc3nccc(-c4cccc(O)c4)n3n2)c1 [Example 200]  0.07 µM
35. COc1cccc([C@H](C)NC(=O)Nc2nc3nccc(-c4cccc(OCCCN5CCOCC5)c4)n3n2)c1 [Example 249]  0.07 µM
36. COc1ccc(-c2ccnc3nc(NC(=O)NC(C)COCC4CCOCC4)nn23)cc1 (stereo not shown) [Example 325]  0.07 µM
37. COCCOCOc1ccc(-c2ccnc3nc(NC(=O)N[C@@H](C)c4cccc(OC)c4)nn23)cc1 [Example 227]  0.07 µM
38. CC(C)CCC[C@H](C)NC(=O)Nc1nc2nccc(-c3cccc(OCCN4CCOCC4)c3)n2n1 [Example 259]  0.06 µM
39. COc1cccc([C@H](C)NC(=O)Nc2nc3nccc(-c4cccc(OCCCc5ccncc5)c4)n3n2)c1 [Example 211]  0.06 µM
40. COc1ccc(-c2ccnc3nc(NC(=O)NC(C)Cc4ccc(Cl)cc4)nn23)cc1 (racemic) [Example 142]  0.06 µM
41. COc1ccc(-c2ccnc3nc(NC(=O)NC(C)CCCN(C)C(=O)OC(C)(C)C)nn23)cc1 (stereo not shown) [Example 282]  0.058 µM
42. COc1ccc(-c2ccnc3nc(NC(=O)NCCC(=O)Nc4ccccc4)nn23)cc1 [Example 156]  0.05 µM
43. COc1ccc(-c2ccnc3nc(NC(=O)NC(C)c4cccc(OC(C)C)c4)nn23)cc1 (racemic) [Example 231]  0.05 µM
44. CC(C)CCC[C@H](C)NC(=O)Nc1nc2nccc(-c3cccs3)n2n1 [Example 246]  0.05 µM
45. COc1ccc(-c2ccnc3nc(NC(=O)NCc4cc(OC)c(OC)c(OC)c4)nn23)cc1 [Example 247]  0.037 µM
46. COCCOc1ccc(-c2ccnc3nc(NC(=O)N[C@@H](C)CCCC(C)C)nn23)cc1 [Example 262, (S)-1-(1,5-dimethylhexyl)-3-{7-[4-(2-methoxyethoxy)phenyl]-[1,2,4]triazolo[1,5-a]pyrimidin-2-yl}urea]  0.03 µM
47. COc1cccc([C@H](C)NC(=O)Nc2nc3nccc(-c4ccc(OCC5CCOCC5)cc4)n3n2)c1 [Example 322]  0.02 µM
48. COCCOCCOCCOc1ccc(-c2ccnc3nc(NC(=O)N[C@@H](C)c4cccc(OC)c4)nn23)cc1 [Example 238]  0.015 µM
49. COc1cccc([C@H](C)NC(=O)Nc2nc3nccc(-c4ccc(O)cc4)n3n2)c1 [Example 223, (S)-1-[7-(4-hydroxyphenyl)-[1,2,4]triazolo[1,5-a]pyrimidin-2-yl]-3-[1-(3-methoxyphenyl)ethyl]urea]  0.014 µM
